Measurements taken from patent US11198761B2, “Biodegradable polyionenes” (AGENCY FOR SCIENCE, TECHNOLOGY AND RESEARCH, priority 2017, dated 2021).

What was measured:
E. coli (ATCC No. 25922) = assay: MIC, broth microdilution; format: cell-based, Escherichia coli; details: Gemini-surfactant series S; 18 hours, 37° C.
Experimental: (§1) Bacterial and fungal samples were inoculated according to ATCC's requirement. Briefly, bacteria and fungi were grown in Mueller Hinton Broth (MHB) at 37° C. and room temperature, respectively overnight to allow the microbes to enter the log growth phase with constant 100 rpm shaking. Minimum inhibitory concentration (MIC) of the polymers was determined using the broth microdilution method. 100 μL of 20% v/v water-containing broth with various polymer or Gemini-surfactant concentrations was first added into each well of a 96-well tissue culture plate. The inoculated overnight microbe solution was first diluted to an optical density (O.D.) reading of 0.07 using a microplate reader (TECAN, Switzerland). This will correspond to 3×10^8 CFU/mL based on the McFarland 1 standard solution (CFU=colony forming units). The microbe solution was further diluted 1000 times to achieve a final 3×10^5 CFU/mL. To each well, an equal volume of diluted microbes solution was added and incubated at 37° C. for 18 hours for bacteria samples and at room temperature for 42 hours for fungi samples. There were 6 replicates for each concentration tested, with negative control being microbes added into broth containing 20% v/v deionized water. MIC was taken as the lowest concentration at which there was no observable microbe growth when measured by the microplate reader.

[1] = system: S. aureus (ATCC No. 6538); assay: MIC, broth microdilution; format: cell-based, Staphylococcus aureus; details: Gemini-surfactant series S; 18 hours, 37° C.
Experimental: as §1

[2] = system: C. albicans (ATCC No 10231); assay: MIC, broth microdilution; format: cell-based, Candida albicans; details: Gemini-surfactant series S; 42 hours, room temperature
Experimental: as §1

[3] = system: rat red blood cells (rRBCs); assay: Hemolysis assay; format: cell-based; details: Gemini-surfactant series S; 1 hour, 37° C.
Experimental: Freshly obtained rat red blood cells (rRBC) from the Animal Handling Unit of Biomedical Research Center (Singapore) was used to test the hemolytic activity of the polymers and Gemini-surfactants. The rRBC was diluted to 4% v/v with phosphate-buffered saline (PBS) and added to an equal volume of 0.2% v/v Triton-X solution. A microplate reader was used to measure the optical density (O.D.) reading to make sure the value is between 0.5 and 0.6. An equal volume of different polymer or Gemini-surfactant concentrations was added to the diluted blood and incubated for 1 hour at 37° C. The samples were centrifuged at 1000 g at 4° C. for 5 minutes and 100 μL of the supernatant was collected and transferred to a 96-well tissue culture plate. There were 4 replicates for each concentration. Haemoglobin release was measured using the microplate reader at 576 nm. rRBCs treated with PBS were used as the […] control, while those treated with 0.2% v/v Triton-X was used as the […] control.
Percentage of hemolysis was calculated as follows: Hemolysis (%)═[(O.D.576 nm of the treated sample−O.D.576 nm of negative control)/(O.D.576 nm of positive control−O.D.576 nm of negative control)]×100%
HC50 was taken as the polymer concentration at which the polymer causes 50% hemolysis.

[4] = system: P. aeruginosa (ATCC No. 9027); assay: MIC, broth microdilution; format: cell-based, Pseudomonas aeruginosa; details: Gemini-surfactant series S; 18 hours, 37° C.
Experimental: as §1

Row | SMILES | MIC EC (E. coli (ATCC No. 25922)) [ppm] | MIC SA [1] [ppm] | MIC CA [2] [ppm] | MIC PA [4] [ppm] | Hemolysis, HC50 [3]
1 | CCCC[N+](C)(C)Cc1ccc(C(=O)NCCOCCOCCNC(=O)c2ccc(C[N+](C)(C)CCCC)cc2)cc1.[Cl-].[Cl-] [S-5e] | >500 | >500 | >500 | >500 | >2000 ppm
2 | CCCCCCCC[N+](C)(C)Cc1ccc(C(=O)NCc2cccc(CNC(=O)c3ccc(C[N+](C)(C)CCCCCCCC)cc3)c2)cc1.[Cl-].[Cl-] [S-4f] | 8 | 2 | 125 | 250 | 250-500 ppm
3 | CCCCCCCCCCCC[N+](C)(C)Cc1ccc(C(=O)NCCNC(=O)c2ccc(C[N+](C)(C)CCCCCCCCCCCC)cc2)cc1.[Cl-].[Cl-] [S-1h] | 8 | 16 | 2 | 31 | 125-250 ppm
4 | CCCCCCCC[N+](C)(C)Cc1ccc(C(=O)NCCCCCCNC(=O)c2ccc(C[N+](C)(C)CCCCCCCC)cc2)cc1.[Cl-].[Cl-] [S-3f] | 16 | 4 | 8 | 500 | 500-1000 ppm
5 | CCCCCCCC[N+](C)(C)Cc1ccc(C(=O)NCCNC(=O)c2ccc(C[N+](C)(C)CCCCCCCC)cc2)cc1.[Cl-].[Cl-] [S-1f] | 250 | 31 | 125 | >500 | >2000 ppm
6 | C[N+](C)(Cc1ccccc1)Cc1ccc(C(=O)NCCOCCOCCNC(=O)c2ccc(C[N+](C)(C)Cc3ccccc3)cc2)cc1.[Cl-].[Cl-] [S-5d] | >500 | >500 | >500 | >500 | >2000 ppm
7 | CCCCCCCCCCCC[N+](C)(C)Cc1ccc(C(=O)NCc2cccc(CNC(=O)c3ccc(C[N+](C)(C)CCCCCCCCCCCC)cc3)c2)cc1.[Cl-].[Cl-] [S-4h] | 8 | 8 | 2 | 31 | 63-125 ppm
8 | C=C(C)C(=O)OCC[N+](C)(C)Cc1ccc(C(=O)NCCOCCOCCNC(=O)c2ccc(C[N+](C)(C)CCOC(=O)C(=C)C)cc2)cc1.[Cl-].[Cl-] [S-5b] | >500 | >500 | >500 | >500 | >2000 ppm
9 | C=CC[N+](C)(C)Cc1ccc(C(=O)NCCOCCOCCNC(=O)c2ccc(C[N+](C)(C)CC=C)cc2)cc1.[Cl-].[Cl-] [S-5a] | >500 | >500 | >500 | >500 | >2000 ppm
10 | CCCCCCCCCCCC[N+](C)(C)Cc1ccc(C(=O)NCCNC(=O)c2ccc(C[N+](C)(C)CCCCCCCCCCCC)cc2)cc1.[Cl-].[Cl-] [S-1g] | 2 | 1 | 2 | 16 | 125-250 ppm
11 | CCCCCCCCCCCC[N+](C)(C)Cc1ccc(C(=O)NCCCCCCNC(=O)c2ccc(C[N+](C)(C)CCCCCCCCCCCC)cc2)cc1.[Cl-].[Cl-] [S-3h] | 16 | 4 | 2 | 16 | 125-250 ppm
12 | CCCCCCCCCC[N+](C)(C)Cc1ccc(C(=O)NCc2cccc(CNC(=O)c3ccc(C[N+](C)(C)CCCCCCCCCC)cc3)c2)cc1.[Cl-].[Cl-] [S-4g] | 1 | 1 | 1 | 8 | 63-125 ppm

Continued, in another order:

Row | MIC EC (E. coli (ATCC No. 25922)) [ppm] | MIC SA [1] [ppm] | MIC CA [2] [ppm] | MIC PA [4] [ppm] | SMILES | Hemolysis, HC50 [3]
13 | 125 | 16 | 16 | >500 | CCCCCCCC[N+](C)(C)Cc1ccc(C(=O)NCCCOCCOCCOCCCNC(=O)c2ccc(C[N+](C)(C)CCCCCCCC)cc2)cc1.[Cl-].[Cl-] [S-6f] | >2000 ppm
14 | 2 | 1 | 2 | 8 | CCCCCCCCCC[N+](C)(C)Cc1ccc(C(=O)OCc2ccc(COC(=O)c3ccc(C[N+](C)(C)CCCCCCCCCC)cc3)cc2)cc1.[Cl-].[Cl-] [S-12g] | 125-250 ppm
15 | 1 | 1 | 1 | 8 | CCCCCCCCCC[N+](C)(C)Cc1ccc(C(=O)OCCCOC(=O)c2ccc(C[N+](C)(C)CCCCCCCCCC)cc2)cc1.[Cl-].[Cl-] [S-7g] | 63-125 ppm
16 | 4 | 2 | 1 | 16 | CCCCCCCCCCCC[N+](C)(C)Cc1ccc(C(=O)NCCOCCOCCNC(=O)c2ccc(C[N+](C)(C)CCCCCCCCCCCC)cc2)cc1.[Cl-].[Cl-] [S-5h] | 16-31 ppm
17 | 4 | 2 | 2 | 63 | CCCCCCCCCC[N+](C)(C)Cc1ccc(C(=O)NCCOCCOCCNC(=O)c2ccc(C[N+](C)(C)CCCCCCCCCC)cc2)cc1.[Cl-].[Cl-] [S-5g] | 125-250 ppm
18 | 2 | 1 | 4 | 8 | CCCCCCCCCCCC[N+](C)(C)Cc1ccc(C(=O)NCCCOCCOCCOCCCNC(=O)c2ccc(C[N+](C)(C)CCCCCCCCCCCC)cc2)cc1.[Cl-].[Cl-] [S-6h] | 31-63 ppm
19 | 500 | 16 | 16 | 500 | CCCCCCCCCC[N+](C)(C)Cc1ccc(C(=O)OCCCCCCCCCCCCOC(=O)c2ccc(C[N+](C)(C)CCCCCCCCCC)cc2)cc1.[Cl-].[Cl-] [S-10g] | 63-125 ppm
20 | 1 | 1 | 1 | 4 | CCCCCCCCCC[N+](C)(C)Cc1ccc(C(=O)NCCCCCCOC(=O)c2ccc(C[N+](C)(C)CCCCCCCCCC)cc2)cc1.[Cl-].[Cl-] [S-13g] | 63-125 ppm
21 | 250 | 31 | 125 | >500 | CCCCCCCC[N+](C)(C)Cc1ccc(C(=O)NCCOCCOCCNC(=O)c2ccc(C[N+](C)(C)CCCCCCCC)cc2)cc1.[Cl-].[Cl-] [S-5f] | >2000 ppm
22 | 4 | 2 | 4 | 63 | CCCCCCCCCC[N+](C)(C)Cc1ccc(C(=O)NCCCOCCOCCOCCCNC(=O)c2ccc(C[N+](C)(C)CCCCCCCCCC)cc2)cc1.[Cl-].[Cl-] [S-6g] | 250-500 ppm
23 | 2 | 1 | 1 | 8 | CCCCCCCCCC[N+](C)(C)Cc1ccc(C(=O)OCCCCCCOC(=O)c2ccc(C[N+](C)(C)CCCCCCCCCC)cc2)cc1.[Cl-].[Cl-] [S-9g] | 125-250 ppm
